From patent publication US9708315B2, “1,2,4-triazolo[4,3-a]pyridine compounds and their use as positive allosteric modulators of MGLUR2 receptors” (Janssen Pharmaceutica NV, priority 2013, dated 2017) come the findings set out here.

In the first experiment the target is T1, human mGlu2 receptor (Homo sapiens, UniProt Q14416).
T1 construct: expressed in transfected cells; host or cells: CHO cells
T1 sequence (Q14416 19-872): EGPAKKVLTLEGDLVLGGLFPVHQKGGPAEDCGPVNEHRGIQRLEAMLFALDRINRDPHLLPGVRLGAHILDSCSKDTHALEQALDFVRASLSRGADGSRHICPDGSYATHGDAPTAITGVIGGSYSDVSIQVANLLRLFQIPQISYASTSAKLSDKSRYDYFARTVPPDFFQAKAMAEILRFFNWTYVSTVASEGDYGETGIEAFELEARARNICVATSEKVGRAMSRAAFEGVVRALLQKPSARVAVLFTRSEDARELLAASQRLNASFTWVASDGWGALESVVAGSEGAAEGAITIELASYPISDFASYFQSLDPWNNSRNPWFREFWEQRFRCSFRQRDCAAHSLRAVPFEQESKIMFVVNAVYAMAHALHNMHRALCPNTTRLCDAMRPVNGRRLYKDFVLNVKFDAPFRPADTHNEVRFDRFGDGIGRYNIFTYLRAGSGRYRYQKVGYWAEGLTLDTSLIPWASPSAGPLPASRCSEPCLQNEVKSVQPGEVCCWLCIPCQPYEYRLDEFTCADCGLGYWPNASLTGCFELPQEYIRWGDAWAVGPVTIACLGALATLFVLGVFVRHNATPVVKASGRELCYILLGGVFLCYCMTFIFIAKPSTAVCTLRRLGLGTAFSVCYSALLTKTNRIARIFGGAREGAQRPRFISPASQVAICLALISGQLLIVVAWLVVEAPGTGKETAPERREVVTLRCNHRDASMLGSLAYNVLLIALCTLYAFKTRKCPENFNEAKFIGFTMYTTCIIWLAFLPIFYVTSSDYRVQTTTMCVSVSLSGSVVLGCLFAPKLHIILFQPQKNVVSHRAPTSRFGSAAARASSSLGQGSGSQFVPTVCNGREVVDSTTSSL
The experiment is described as follows: [35S]GTPγS binding assay, mGluR2 PAM. The format is biochemical. The following applies: GTPγS - hmGluR2 PAM pEC50, in presence of glutamate at EC20; EC50 expressed in M. As for the experimental part:
[^35S]GTPγS Binding Assay
The [^35S]GTPγS binding assay is a functional membrane-based assay used to study G-protein coupled receptor (GPCR) function whereby incorporation of a non-hydrolysable form of GTP, [^35S]GTPγS (guanosine 5′-triphosphate, labelled with […] ^35S), is measured.
Cells were then collected by scraping in PBS and cell suspension was centrifuged (10 min at 4000 RPM in benchtop centrifuge). Supernatant was discarded and pellet gently resuspended in 50 mM Tris-HCl, pH 7.4 by mixing with a vortex and pipetting up and down. The suspension was centrifuged at 16,000 RPM (Sorvall RC-5C plus rotor SS-34) for 10 minutes and the supernatant discarded. The pellet was homogenized in 5 mM Tris-HCl, pH 7.4 using an ultra-turrax homogenizer and centrifuged again (18,000 RPM, 20 min, 4° C.). The final pellet was resuspended in 50 mM Tris-HCl, pH 7.4 and stored at −80° C. in appropriate aliquots before use. Protein concentration was determined by the Bradford method (Bio-Rad, USA) with bovine serum albumin as standard.
Measurement of mGluR2 positive allosteric modulatory activity of test compounds was performed as follows. Test compounds and glutamate were diluted in assay buffer containing 10 mM HEPES acid, 10 mM HEPES salt, pH 7.4, 100 mM NaCl, 3 mM MgCl2 and 10 μM GDP. Human mGlu2 receptor-containing membranes were thawed on ice and diluted in assay buffer supplemented with 14 μg/ml saponin. Membranes were pre-incubated with compound alone or together with a predefined (˜EC20) concentration of glutamate (PAM assay) for 30 min at 30° C. After addition of [^35S]GTPγS (f c. 0.1 nM), assay mixtures were shaken briefly and further incubated to allow [^35S]GTPγS incorporation on activation (30 minutes, 30° C.). Final assay mixtures contained 7 μg of membrane protein in 10 mM HEPES acid, 10 mM HEPES salt, pH 7.4, 100 mM NaCl, 3 mM MgCl2, 10 μM GDP and 2 μg/ml saponin. […] Filters were washed 6 times with ice-cold 10 mM NaH2PO4/10 mM Na2HPO4, pH 7.4. Filters were then air-dried, and 40 μl of liquid scintillation cocktail (Microscint-O) was added to each well. Membrane-bound radioactivity was counted in a Microplate Scintillation and Luminescence Counter from Perkin Elmer.
The concentration-response curves of representative compounds of the present invention—obtained in the presence of EC20 of mGluR2 agonist glutamate to determine positive allosteric modulation (PAM)—were generated using the Lexis software interface (developed at J&J). Data were calculated as % of the control glutamate response, defined as the maximal response that is generated upon addition of glutamate alone. Sigmoid concentration-response curves plotting these percentages versus the log concentration of the test compound were analyzed using non-linear regression analysis. The concentration producing half-maximal effect is then calculated as EC50.
The pEC50 values below were calculated as the −log EC50, when the EC50 is expressed in M. Emax is defined as relative maximal effect (i.e. maximal % effect relative to the control glutamate response).
All compounds were tested in presence of mGluR2 agonist glutamate at a predetermined EC20 concentration, to determine positive allosteric modulation. pEC50 values were calculated from a concentration-response experiment of at least 8 concentrations.
(GTPγS is a poorly hydrolysed GTP analogue; its binding reports G protein activation.)
Take `CC(Oc1ccc(F)cc1F)c1ccn2c(CC3CCC3)nnc2c1C(F)(F)F` (single isomer, unassigned) [Compound 18, 3-(Cyclobutylmethyl)-7-[(1*S)-1-(2,4-difluorophenoxy)ethyl]-8-(trifluoromethyl)[1,2,4]triazolo[4,3-a]pyridine]: the EC50 was 575 nM.

Take `CCOCc1nnc2c(C(F)(F)F)c(C(C)Oc3c(F)cc(F)cc3F)ccn12` (single isomer, unassigned) [Compound 23, 3-(Ethoxymethyl)-8-(trifluoromethyl)-7-[(1*S)-1-(2,4,6-trifluorophenoxy)ethyl][1,2,4]triazolo[4,3-a]pyridine]: the EC50 was 1150 nM. For `CCOCc1nnc2c(C(F)(F)F)c(C(C)Oc3c(F)cc(F)cc3F)ccn12` (single isomer, unassigned) [Compound 22, 3-(Ethoxymethyl)-8-(trifluoromethyl)-7-[(1*R)-1-(2,4,6-trifluorophenoxy)ethyl][1,2,4]triazolo[4,3-a]pyridine], the EC50 was 24.5 nM. For `CC(Oc1ccc(F)cc1F)c1ccn2c(CC3CCC3)nnc2c1C(F)(F)F` (single isomer, unassigned) [Compound 17, 3-(Cyclobutylmethyl)-7-[(1*R)-1-(2,4-difluorophenoxy)ethyl]-8-(trifluoromethyl)[1,2,4]triazolo[4,3-a]pyridine], the EC50 was 18.6 nM.

For the molecule `CC(Oc1ccc(F)cc1F)c1ccn2c(CC3CCC3)nnc2c1C(F)(F)F` (centres unmarked) [Compound 16, 3-(Cyclobutylmethyl)-7-[1-(2,4-difluorophenoxy)ethyl]-8-(trifluoromethyl)[1,2,4]triazolo[4,3-a]pyridine], the EC50 was 28.8 nM.

The experiment is the same for the next values; noted with them: in presence of glutamate at EC20; EC50 expressed in M; read-out: GTPγS - hmGluR2 PAM pEC50 (converted).
For `C[C@H](Oc1c(F)cccc1F)c1ccn2c(CC3CC3)nnc2c1C(F)(F)F` [Compound 11, 3-(Cyclopropylmethyl)-7-[(1S)-1-(2,6-difluorophenoxy)ethyl]-8-(trifluoromethyl)[1,2,4]triazolo[4,3-a]pyridine], the EC50 was 5.62 nM. On the same count and under the same terms, with `CCOCc1nnc2c(C(F)(F)F)c(C(C)Oc3ccc(F)cc3F)ccn12` (single isomer, unassigned) [Compound 20, 7-[(1*R)-1-(2,4-Difluorophenoxy)ethyl]-3-(ethoxymethyl)-8-(trifluoromethyl)[1,2,4]triazolo[4,3-a]pyridine] the figure was 85.1 nM; with `CC(Oc1ccc(F)cc1)c1ccn2c(CC3CC3)nnc2c1C(F)(F)F` (single isomer, unassigned) [Compound 3, 3-(Cyclopropylmethyl)-7-[(1*S)-1-(4-fluorophenoxy)ethyl]-8-(trifluoromethyl)[1,2,4]triazolo[4,3-a]pyridine], 1620 nM. As to `CC(Oc1ccc(F)cc1)c1ccn2c(CC3CC3)nnc2c1C(F)(F)F` (centres unmarked) [Compound 1, 3-(Cyclopropylmethyl)-7-[1-(4-fluorophenoxy)ethyl]-8-(trifluoromethyl)[1,2,4]triazolo[4,3-a]pyridine], the EC50 was 257 nM. Same read-out and setting: with `C[C@H](Oc1c(F)cc(F)cc1F)c1ccn2c(CC3CC3)nnc2c1C(F)(F)F` [Compound 15, 3-(Cyclopropylmethyl)-8-(trifluoromethyl)-7-[(1S)-1-(2,4,6-trifluorophenoxy)ethyl][1,2,4]triazolo[4,3-a]pyridine] the figure was 6.92 nM; with `C[C@H](Oc1cc(F)ccc1F)c1ccn2c(CC3CC3)nnc2c1C(F)(F)F` [Compound 10, 3-(Cyclopropylmethyl)-7-[(1S)-1-(2,5-difluorophenoxy)ethyl]-8-(trifluoromethyl)[1,2,4]triazolo[4,3-a]pyridine], 33.9 nM.

For the molecule `CCCc1nnc2c(C(F)(F)F)c(C(C)Oc3ccc(F)cc3F)ccn12` (single isomer, unassigned) [Compound 31], the EC50 was 89.1 nM. Still for that read-out and setting: with `Cc1ccc(O[C@@H](C)c2ccn3c(CC4CC4)nnc3c2C(F)(F)F)c(Cl)c1` [Compound 13, 7-[(1S)-1-(2-Chloro-4-methylphenoxy)ethyl]-3-(cyclopropylmethyl)-8-(trifluoromethyl)[1,2,4]triazolo[4,3-a]pyridine] the figure was 17.8 nM; with `C[C@H](Oc1ccc(F)c(F)c1)c1ccn2c(CC3CC3)nnc2c1C(F)(F)F` [Compound 8, 3-(Cyclopropylmethyl)-7-[(1S)-1-(3,4-difluorophenoxy)ethyl]-8-(trifluoromethyl)[1,2,4]triazolo[4,3-a]pyridine], 91.2 nM; with `CCCc1nnc2c(C(F)(F)F)c(C(C)Oc3ccc(F)cc3F)ccn12` (centres unmarked) [Compound 30, 7-[1-(2,4-Difluorophenoxy)ethyl]-3-propyl-8-(trifluoromethyl)[1,2,4]triazolo[4,3-a]pyridine], 126 nM. Same read-out and setting: the value for `COc1cc(F)ccc1O[C@@H](C)c1ccn2c(CC3CC3)nnc2c1C(F)(F)F` [Compound 12, 3-(Cyclopropylmethyl)-7-[(1S)-1-(4-fluoro-2-methoxyphenoxy)ethyl]-8-(trifluoromethyl)[1,2,4]triazolo[4,3-a]pyridine] was 102 nM; that for `Cc1cc(F)ccc1O[C@@H](C)c1ccn2c(CC3CC3)nnc2c1C(F)(F)F` [Compound 14, 3-(Cyclopropylmethyl)-7-[(1 S)-1-(4-fluoro-2-methylphenoxy)ethyl]-8-(trifluoromethyl)[1,2,4]triazolo[4,3-a]pyridine] was 29.5 nM. Still for that read-out and setting: with `C[C@H](Oc1cccc(F)c1F)c1ccn2c(CC3CC3)nnc2c1C(F)(F)F` [Compound 9, 3-(Cyclopropylmethyl)-7-[(1S)-1-(2,3-difluorophenoxy)ethyl]-8-(trifluoromethyl)[1,2,4]triazolo[4,3-a]pyridine] the figure was 50.1 nM; with `C[C@H](Oc1cc(F)cc(F)c1)c1ccn2c(CC3CC3)nnc2c1C(F)(F)F` [Compound 7, 3-(Cyclopropylmethyl)-7-[(1S)-1-(3,5-difluorophenoxy)ethyl]-8-(trifluoromethyl)[1,2,4]triazolo[4,3-a]pyridine], 49 nM; with `CCOCc1nnc2c(C(F)(F)F)c(C(C)Oc3ccc(F)cc3F)ccn12` (centres unmarked) [Compound 19, 7-[1-(2,4-Difluorophenoxy)ethyl]-3-(ethoxymethyl)-8-(trifluoromethyl)[1,2,4]triazolo[4,3-a]pyridine], 195 nM. As to `CC(Oc1ccc(F)cc1)c1ccn2c(CC3CC3)nnc2c1C(F)(F)F` (single isomer, unassigned) [Compound 2, 3-(Cyclopropylmethyl)-7-[(1*R)-1-(4-fluorophenoxy)ethyl]-8-(trifluoromethyl)[1,2,4]triazolo[4,3-a]pyridine], the EC50 is 145 nM. Still for that read-out and setting: with `C[C@@H](Oc1ccc(F)cc1F)c1ccn2c(CC3CC3)nnc2c1C(F)(F)F` [Compound 5, 3-(Cyclopropylmethyl)-7-[(1R)-1-(2,4-difluorophenoxy)ethyl]-8-(trifluoromethyl)[1,2,4]triazolo[4,3-a]pyridine] the figure was 871 nM; with `CCCc1nnc2c(C(F)(F)F)c(C(C)Oc3ccc(F)cc3F)ccn12` (single isomer, unassigned) [Compound 32], 1950 nM. On the same count and under the same terms, the value for `CCOCc1nnc2c(C(F)(F)F)c(C(C)Oc3ccc(F)cc3F)ccn12` (single isomer, unassigned) [Compound 21, 7-[(1*S)-1-(2,4-Difluorophenoxy)ethyl]-3-(ethoxymethyl)-8-(trifluoromethyl)[1,2,4]triazolo[4,3-a]pyridine] was 479 nM. The same measure, in the same setting: the value for `CC(Oc1ccc(F)cc1F)c1ccn2c(CC3CC3)nnc2c1C(F)(F)F` (centres unmarked) [Compound 4, 3-(Cyclopropylmethyl)-7-[1-(2,4-difluorophenoxy)ethyl]-8-(trifluoromethyl)[1,2,4]triazolo[4,3-a]pyridine] was 91.2 nM.

The experiment is the same for the next values; noted with them: maximal % effect relative to the control glutamate response; glutamate at EC20.
On to `CC(Oc1ccc(F)cc1F)c1ccn2c(CC3CCC3)nnc2c1C(F)(F)F` (single isomer, unassigned) [Compound 18, 3-(Cyclobutylmethyl)-7-[(1*S)-1-(2,4-difluorophenoxy)ethyl]-8-(trifluoromethyl)[1,2,4]triazolo[4,3-a]pyridine], for which the “GTPγS - hmGluR2 PAM Emax” value was determined as 213%.

The experiment is the same for the next values; noted with them: read-out: GTPγS - hmGluR2 PAM Emax, maximal % effect relative to the control glutamate response; glutamate at EC20.
A word on the Emax: it is the greatest response seen or fitted, relative to the assay's reference. `CC(Oc1ccc(F)cc1F)c1ccn2c(CC3CCC3)nnc2c1C(F)(F)F` (single isomer, unassigned) [Compound 17, 3-(Cyclobutylmethyl)-7-[(1*R)-1-(2,4-difluorophenoxy)ethyl]-8-(trifluoromethyl)[1,2,4]triazolo[4,3-a]pyridine]: the Emax turned out to be 317%. The same measure, in the same setting: the value for `CCOCc1nnc2c(C(F)(F)F)c(C(C)Oc3ccc(F)cc3F)ccn12` (centres unmarked) [Compound 19, 7-[1-(2,4-Difluorophenoxy)ethyl]-3-(ethoxymethyl)-8-(trifluoromethyl)[1,2,4]triazolo[4,3-a]pyridine] was 297%. On the same count and under the same terms, the value for `CC(Oc1ccc(F)cc1F)c1ccn2c(CC3CCC3)nnc2c1C(F)(F)F` (centres unmarked) [Compound 16, 3-(Cyclobutylmethyl)-7-[1-(2,4-difluorophenoxy)ethyl]-8-(trifluoromethyl)[1,2,4]triazolo[4,3-a]pyridine] was 284%.
